Values quoted from earlier work in US20070173464A1, “Oral ribavirin pharmaceutical compositions” (Flamel Technologies, priority 2005, published 2007).
≈ marks a conversion by molar mass, not a printed value.

Assays:
Hepatitis C Virus (HC) = details: up to 1200 mg per day, typically 48 weeks, in conjunction with interferon or long acting pegylated interferon; genotype I patients

In the case of NC(=O)c1ncn([C@@H]2O[C@H](CO)[C@@H](O)[C@H]2O)n1 [Ribavirin, 1-beta-D-ribofuranosyl-1,2,4-thiazole-3-carboxamide], the sustained virologic response (Hepatitis C Virus (HC)) is listed as 30 to 55 % of genotype I patients and the water solubility is listed as 140 mg/mL (≈ 573 mM).
